Article PMC12741935 (Alzheimer's & Dementia, 2025)

Tested on: brain proteome
Experiment: Brain proteomics (DIA LC-MS/MS) after chronic NVS-PAK1-1 100 mg/kg BID PO vs vehicle in 5xFAD mice
Format: in vivo
Settings: for NES (gene set enrichment), NVS-PAK1-1 vs vehicle: Young Female
Protocol: A total of 91 brain samples were prepared from mice in this study and analyzed by mass spectrometry proteomics. One third of the mixed‐chopped left hemisphere tissue was homogenized in 8 M urea lysis buffer (8 M urea, 10 mM Tris, 100 mM NaH2PO4, pH 8.5) with HALT protease and phosphatase inhibitor cocktail (Thermo Fisher) and sonicated for three cycles consisting of 5 seconds of active sonication at 30% amplitude, followed by 15 seconds on ice. Samples were then centrifuged for 5 minutes at 15,000 g and the supernatant was transferred to a new tube. Protein concentration was determined by bicinchoninic acid (BCA) assay (Pierce). For protein digestion, 200 µg of each sample was aliquoted and volumes normalized with additional lysis buffer. Samples were reduced with 5 mM DTT at room temperature for 30 minutes, followed by 10 mM iodoacetamide (IAA) alkylation in the dark for another 30 minutes. Lysyl endopeptidase (Wako) at 1:25 (w/w) was added, and digestion allowed to proceed overnight. Samples were then 7‐fold diluted with 50 mM ammonium bicarbonate. Trypsin (Promega) was then added at 1:25 (w/w) and digestion proceeded overnight. The peptide solutions were acidified to a final concentration of 1% (vol/vol) FA and 0.1% (vol/vol) TFA and desalted with a 10 mg HLB column (Oasis). Each HLB column was first rinsed with 1 mL of methanol, washed with 1 mL 50% (vol/vol) acetonitrile (ACN), and equilibrated with 2 × 1 mL 0.1% (vol/vol) TFA. The samples were then loaded onto the column and washed with 2 × 1 mL 0.1% (vol/vol) TFA. Elution was performed with 0.5 mL 50% (vol/vol) ACN. Samples were split into 50 µL and 400 µL aliquots. Residuals from all samples were combined to create a global internal standard pool.
Samples were resuspended in an equal volume of loading buffer (0.1% FA, 0.03% TFA, 1% ACN) and analyzed by LC‐MS/MS. Peptide eluents (1 µg) were separated on a Water's CSH (15 cm × 150 µM internal diameter [ID] with 1.7 µm CSH resin) by a Dionex Ultimate 3000 RSLCnano (Thermo Fisher). Buffer A was water with 0.1% (vol/vol) formic acid, and buffer B was 80% (vol/vol) acetonitrile in water with 0.1% (vol/vol) FA. Elution was performed over a 30 minute gradient. The gradient was from 1% to 99% solvent B. Peptides were monitored on an Orbitrap Fusion Lumos mass spectrometer (Thermo Fisher). Each cycle consisted of one full scan (MS1) performed with an m/z range of 380 to 985 at a 60,000 resolution at standard settings and 30 data independent scans (DIA) in 1.5 seconds. The higher energy collision‐induced dissociation (HCD) tandem scans were collected at 30% collision energy with an isolation of 10 m/z, a resolution of 15,000, an AGC setting of 200% normalized AGC target, and a maximum injection time set to 40 ms.
Raw data files were converted to mzML format for downstream processing using ThermoRawFilerParser v.1.4.4.[30] The data were processed using Data‐Independent Acquisition by Neural Network (DIA‐NN) v.1.9.1.[31] A spectral library was generated using all canonical mouse proteins from UniProt and SwissProt (accessed September 24, 2024) and contaminants from the Common Repository of Adventitious Proteins (cRAP) database [https://www.thegpm.org/crap/]; these contaminant proteins were excluded from normalization and downstream analysis. DIA‐NN was run using parameters specified as follows: precursor charge was set from 1 to 4 and precursor m/z was set from 200 to 5000. Enzyme digestion was set to strict trypsin with 1 allowed missed cleavage, peptide length was set from 7 to 50, and peptide m/z was set from 150 to 3000. The maximum number of variable modifications was set to 3 and methionine oxidation was allowed as a variable modification. Cysteine carbamidomethylation was allowed as a fixed modification. MS1 and MS2 mass accuracy (in ppm) were set using autodetect and the scan window was set using autodetect. The false discovery rate (FDR) threshold was set to 1%. […]

Compound: CC(C)NC(=O)N1CC[C@H](NC2=Nc3cc(F)ccc3N(CC(F)F)c3ccc(Cl)cc32)C1 [NVS‐PAK1‐1, (S)‐3‐([2‐chloro‐5‐(2,2‐difluoroethyl)‐8‐fluoro‐5H‐dibenzo[b,e][1,4]diazepin‐11‐yl]amino)‐N‐isopropylpyrrolidine‐1‐carboxamide]
- logFC, FAD5X_A_tx vs FAD5X_B_veh (ATP8, Aged M 5xFAD brain): -0.1292
- logFC_NVS.PAK1.1_vs_vehicle (Acat2, Young F 5xFAD brain): -0.07095
- logFC_NVS.PAK1.1_vs_vehicle (Acly, Young F 5xFAD brain): -0.0659
- logFC_NVS.PAK1.1_vs_vehicle (Acly, Young M 5xFAD brain): -0.07659
- logFC_NVS.PAK1.1_vs_vehicle (Agk, Young F 5xFAD brain): 0.08371
- logFC_NVS.PAK1.1_vs_vehicle (Agl, Young F 5xFAD brain): -0.0869
- logFC_NVS.PAK1.1_vs_vehicle (Aldh1l1, Young F 5xFAD brain): -0.1253
- logFC_NVS.PAK1.1_vs_vehicle (Anxa6, Young M 5xFAD brain): -0.118
- logFC_NVS.PAK1.1_vs_vehicle (App, Young F 5xFAD brain): -0.2576
- logFC_NVS.PAK1.1_vs_vehicle (Armcx5, Young M 5xFAD brain): 0.3268
- logFC_NVS.PAK1.1_vs_vehicle (Atl2, Aged F 5xFAD brain): -0.08745
- logFC_NVS.PAK1.1_vs_vehicle (Atp2b4, Young M 5xFAD brain): 0.1099
- logFC_NVS.PAK1.1_vs_vehicle (Atp5if1, Aged F 5xFAD brain): -0.5225
- logFC_NVS.PAK1.1_vs_vehicle (Calr, Young F 5xFAD brain): -0.07235
- logFC_NVS.PAK1.1_vs_vehicle (Cep170b, Young M 5xFAD brain): 0.1293
- logFC_NVS.PAK1.1_vs_vehicle (Cfap61, Young F 5xFAD brain): -0.4846
- logFC_NVS.PAK1.1_vs_vehicle (Cfl2, Young F 5xFAD brain): 0.1353
- logFC_NVS.PAK1.1_vs_vehicle (Chordc1, Young F 5xFAD brain): -0.1408
- logFC_NVS.PAK1.1_vs_vehicle (Ciapin1, Young M 5xFAD brain): -0.1789
- logFC_NVS.PAK1.1_vs_vehicle (Cops5, Aged M 5xFAD brain): 0.1116
- logFC_NVS.PAK1.1_vs_vehicle (Cox7a2, Aged F 5xFAD brain): -0.07809
- logFC_NVS.PAK1.1_vs_vehicle (Dctn3, Young F 5xFAD brain): -0.07573
- logFC_NVS.PAK1.1_vs_vehicle (Echdc1, Young F 5xFAD brain): -0.211
- logFC_NVS.PAK1.1_vs_vehicle (Eef1b, Young F 5xFAD brain): -0.1102
- logFC_NVS.PAK1.1_vs_vehicle (Eef2, Young F 5xFAD brain): -0.07944
- logFC_NVS.PAK1.1_vs_vehicle (Ehd3, Aged M 5xFAD brain): 0.04696
- logFC_NVS.PAK1.1_vs_vehicle (Eif1, Young F 5xFAD brain): -0.1062
- logFC_NVS.PAK1.1_vs_vehicle (Elfn2, Aged M 5xFAD brain): -0.27
- logFC_NVS.PAK1.1_vs_vehicle (Fasn, Young F 5xFAD brain): -0.08056
- logFC_NVS.PAK1.1_vs_vehicle (Fdps.1, Young F 5xFAD brain): -0.1222
- logFC_NVS.PAK1.1_vs_vehicle (Fn3krp, Aged M 5xFAD brain): 0.1203
- NES (gene set enrichment), NVS-PAK1-1 vs vehicle (GO:0005740 mitochondrial envelope): 2.24
- NES (gene set enrichment), NVS-PAK1-1 vs vehicle (GO:0005743 mitochondrial inner membrane): 2.303
- NES (gene set enrichment), NVS-PAK1-1 vs vehicle (GO:0019866 organelle inner membrane): 2.289
- NES (gene set enrichment), NVS-PAK1-1 vs vehicle (GO:0031966 mitochondrial membrane): 2.233
- logFC_NVS.PAK1.1_vs_vehicle (Gap43, Young F 5xFAD brain): 0.1885
- logFC_NVS.PAK1.1_vs_vehicle (Gnb1.1, Aged F 5xFAD brain): -0.6461
- logFC_NVS.PAK1.1_vs_vehicle (Gng2, Young M 5xFAD brain): 0.102
- logFC, FAD5X_A_tx vs FAD5X_B_veh (HC;Ighg2b, Aged M 5xFAD brain): 0.3576
- logFC_NVS.PAK1.1_vs_vehicle (Hnrnpf, Aged F 5xFAD brain): -0.0585
- logFC_NVS.PAK1.1_vs_vehicle (Hprt1, Young F 5xFAD brain): 0.09623
- logFC_NVS.PAK1.1_vs_vehicle (Hsp90ab1, Young F 5xFAD brain): -0.08556
- logFC_NVS.PAK1.1_vs_vehicle (Hsp90b1, Young F 5xFAD brain): -0.1385
- logFC_NVS.PAK1.1_vs_vehicle (Hspa8.1, Young F 5xFAD brain): -0.05148
- logFC_NVS.PAK1.1_vs_vehicle (Hsph1, Young F 5xFAD brain): -0.0893
- logFC_NVS.PAK1.1_vs_vehicle (Idh1, Young F 5xFAD brain): -0.08685
- logFC_NVS.PAK1.1_vs_vehicle (Idi1, Young F 5xFAD brain): -0.1582
- logFC_NVS.PAK1.1_vs_vehicle (Kctd16, Young M 5xFAD brain): 0.1263
- logFC_NVS.PAK1.1_vs_vehicle (Klc1, Young F 5xFAD brain): -0.06729
- logFC_NVS.PAK1.1_vs_vehicle (Lcmt1, Young F 5xFAD brain): -0.08416
- logFC_NVS.PAK1.1_vs_vehicle (Lcp1, Young F 5xFAD brain): -0.2692
- logFC_NVS.PAK1.1_vs_vehicle (Lrfn4, Aged F 5xFAD brain): 0.3404
- logFC_NVS.PAK1.1_vs_vehicle (Ly6h, Young M 5xFAD brain): 0.08528
- logFC_NVS.PAK1.1_vs_vehicle (Map1lc3a, Young M 5xFAD brain): 0.1055
- logFC_NVS.PAK1.1_vs_vehicle (Map7d2, Aged M 5xFAD brain): 0.1103
- logFC_NVS.PAK1.1_vs_vehicle (Mark4, Young F 5xFAD brain): 0.2384
- logFC_NVS.PAK1.1_vs_vehicle (Mib2, Aged M 5xFAD brain): -0.4263
- logFC_NVS.PAK1.1_vs_vehicle (Mipep, Aged F 5xFAD brain): 1.596
- logFC_NVS.PAK1.1_vs_vehicle (Myh10, Aged F 5xFAD brain): -1.404
- logFC_NVS.PAK1.1_vs_vehicle (Mylk, Aged M 5xFAD brain): -1.455
- logFC_NVS.PAK1.1_vs_vehicle (Nck2, Aged M 5xFAD brain): 0.1477
- logFC_NVS.PAK1.1_vs_vehicle (Nherf1, Young F 5xFAD brain): -0.1106
- logFC_NVS.PAK1.1_vs_vehicle (Nmd3, Young F 5xFAD brain): -0.95
- logFC_NVS.PAK1.1_vs_vehicle (Nmt1, Young F 5xFAD brain): -0.1011
- logFC_NVS.PAK1.1_vs_vehicle (Nomo1, Young F 5xFAD brain): -0.1733
- logFC_NVS.PAK1.1_vs_vehicle (Nrdc, Aged M 5xFAD brain): -0.1746
- logFC_NVS.PAK1.1_vs_vehicle (Ntm, Young M 5xFAD brain): 0.1007
- logFC_NVS.PAK1.1_vs_vehicle (Pkm, Aged M 5xFAD brain): -0.04674
- logFC_NVS.PAK1.1_vs_vehicle (Plpp3, Young F 5xFAD brain): -0.1143
- logFC_NVS.PAK1.1_vs_vehicle (Plxna4, Young F 5xFAD brain): 0.1065
- logFC_NVS.PAK1.1_vs_vehicle (Pnpo, Young F 5xFAD brain): 0.2
- logFC_NVS.PAK1.1_vs_vehicle (Ppp1r21, Young F 5xFAD brain): -0.1088
- logFC_NVS.PAK1.1_vs_vehicle (Ptgds, Young F 5xFAD brain): -0.128
- logFC_NVS.PAK1.1_vs_vehicle (RTRAF, Young F 5xFAD brain): -0.06356
- logFC_NVS.PAK1.1_vs_vehicle (Rab27b, Young F 5xFAD brain): 0.1779
- logFC_NVS.PAK1.1_vs_vehicle (Rab33a, Aged M 5xFAD brain): -0.2639
- logFC_NVS.PAK1.1_vs_vehicle (Rap2a, Young F 5xFAD brain): 0.09042
- logFC_NVS.PAK1.1_vs_vehicle (Rasgef1a, Aged M 5xFAD brain): 0.8766
- logFC_NVS.PAK1.1_vs_vehicle (Rbm4b, Aged M 5xFAD brain): -0.3664
- logFC_NVS.PAK1.1_vs_vehicle (Robo2, Young M 5xFAD brain): 0.2982
- logFC_NVS.PAK1.1_vs_vehicle (Rock2, Aged F 5xFAD brain): 0.0515
- logFC_NVS.PAK1.1_vs_vehicle (Rpl34, Young F 5xFAD brain): -0.09945
- logFC_NVS.PAK1.1_vs_vehicle (Rps3, Young F 5xFAD brain): -0.04356
- logFC_NVS.PAK1.1_vs_vehicle (S100a1, Young F 5xFAD brain): -0.119
- logFC_NVS.PAK1.1_vs_vehicle (Sec14l2, Young F 5xFAD brain): -0.1884
- logFC_NVS.PAK1.1_vs_vehicle (Senp3, Young M 5xFAD brain): -0.3344
- logFC_NVS.PAK1.1_vs_vehicle (Septin2, Young F 5xFAD brain): -0.1026
- logFC_NVS.PAK1.1_vs_vehicle (Septin3, Young F 5xFAD brain): 0.07371
- logFC_NVS.PAK1.1_vs_vehicle (Serpinb6, Young F 5xFAD brain): -0.1362
- logFC_NVS.PAK1.1_vs_vehicle (Sgip1, Young M 5xFAD brain): 0.06159
- logFC_NVS.PAK1.1_vs_vehicle (Snw1, Aged F 5xFAD brain): -0.2022
- logFC_NVS.PAK1.1_vs_vehicle (Spag9, Aged F 5xFAD brain): -0.08904
- logFC_NVS.PAK1.1_vs_vehicle (Stom, Aged F 5xFAD brain): -0.4369
- logFC_NVS.PAK1.1_vs_vehicle (Stom, Young M 5xFAD brain): -0.67
- logFC_NVS.PAK1.1_vs_vehicle (Stxbp5, Aged M 5xFAD brain): -0.08024
- logFC_NVS.PAK1.1_vs_vehicle (Syngr1, Young M 5xFAD brain): 0.07489
- logFC_NVS.PAK1.1_vs_vehicle (Sypl1, Aged M 5xFAD brain): 0.2577
- logFC_NVS.PAK1.1_vs_vehicle (Tbc1d24, Young F 5xFAD brain): 0.08048
- logFC_NVS.PAK1.1_vs_vehicle (Tkfc, Aged M 5xFAD brain): -0.1852
- logFC_NVS.PAK1.1_vs_vehicle (Tom1l2, Aged M 5xFAD brain): 0.07172
- logFC_NVS.PAK1.1_vs_vehicle (Txndc16, Young M 5xFAD brain): -1.405
- logFC_NVS.PAK1.1_vs_vehicle (Usp54, Aged M 5xFAD brain): 2.652
- logFC_NVS.PAK1.1_vs_vehicle (Vasp, Young F 5xFAD brain): 0.6308
- logFC_NVS.PAK1.1_vs_vehicle (Vps33b, Aged M 5xFAD brain): -0.1328
- logFC_NVS.PAK1.1_vs_vehicle (Wasf3, Young M 5xFAD brain): 0.12
- logFC_NVS.PAK1.1_vs_vehicle (Zfp967;Zfp968, Young F 5xFAD brain): -1.398
